Legend:
Assay type in all cases: in vivo
[1] = tested on: wheat (Triticum aestivum); test: Test A pre-/postemergence plant response
Description: (§1) Seeds of barnyardgrass (Echinochloa crus-galli), large crabgrass (Digitaria sanguinalis), giant foxtail (Setaria faberii), morningglory (Ipomoea spp.), pigweed (Amaranthus retroflexus), velvetleaf (Abutilon theophrasti), wheat (Triticum aestivum) and corn (Zea mays) were planted into a blend of loam soil and sand and treated preemergence with a directed soil spray using test chemicals formulated in a non-phytotoxic solvent mixture which included a surfactant. At the same time these species were also treated with postemergence applications of test compounds formulated in the same manner.
(§2) Plants ranged in height from two to ten cm and were in the one- to two-leaf stage for the postemergence treatment. Treated plants and untreated controls were maintained in a greenhouse for approximately ten days, after which time all treated plants were compared to untreated controls and visually evaluated for injury. Plant response ratings, summarized in Table A, are based on a 0 to 100 scale where 0 is no effect and 100 is complete control. A dash (-) response means no test result.

[2] = tested on: giant foxtail (Setaria faberii); test: Test A pre-/postemergence plant response
Description: as §1, §2

[3] = tested on: large crabgrass (Digitaria sanguinalis); test: Test A pre-/postemergence plant response
Description: as §1, §2

[4] = tested on: barnyardgrass (Echinochloa crus-galli); test: Test A pre-/postemergence plant response
Description: as §1, §2

[5] = tested on: velvetleaf (Abutilon theophrasti); test: Test A pre-/postemergence plant response
Description: as §1, §2

[6] = tested on: pigweed (Amaranthus retroflexus); test: Test A pre-/postemergence plant response
Description: as §1, §2

[7] = tested on: morningglory (Ipomoea spp.); test: Test A pre-/postemergence plant response
Description: as §1, §2

[8] = tested on: corn (Zea mays); test: Test A pre-/postemergence plant response
Description: as §1, §2

[9] = tested on: barnyardgrass (Echinochloa crus-galli); test: Test B flooded paddy test; conditions: for Plant response rating, Flood, Barnyardgrass: 250 g ai/ha, flooded paddy test, visual rating on 0 to 100 scale (0 no effect, 100 complete control) after 13 to 15 days; for Plant response rating, Barnyardgrass: Flood (flooded paddy test), 13 to 15 days
Description: (§3) Plant species in the flooded paddy test consisted of rice (Oryza sativa), umbrella sedge (Cyperus difformis), ducksalad (Heteranthera limosa) and barnyardgrass (Echinochloa crus-galli) grown to the 2-leaf stage for testing. At the time of treatment, test pots were flooded with water to 3 cm above the soil surface, treated by application of test compounds directly to the paddy water, and then maintained at that water depth for the duration of the test.
(§4) Treated plants and controls were maintained in a greenhouse for 13 to 15 days, after which time all treated plants were visually evaluated and compared to controls. Plant response ratings, summarized in Table B, are based on a scale of 0 to 100 where 0 is no effect and 100 is complete control. A dash (-) response means no test result.

[10] = tested on: ducksalad (Heteranthera limosa); test: Test B flooded paddy test; conditions: for Plant response rating, Flood, Ducksalad: 250 g ai/ha, flooded paddy test, visual rating on 0 to 100 scale (0 no effect, 100 complete control) after 13 to 15 days; for Plant response rating, Ducksalad: Flood (flooded paddy test), 13 to 15 days
Description: as §3, §4

[11] = tested on: umbrella sedge (Cyperus difformis); test: Test B flooded paddy test; conditions: for Plant response rating, Flood, Sedge, Umbrella: 250 g ai/ha, flooded paddy test, visual rating on 0 to 100 scale (0 no effect, 100 complete control) after 13 to 15 days; for Plant response rating, Sedge, Umbrella: Flood (flooded paddy test), 13 to 15 days
Description: as §3, §4

[12] = tested on: rice (Oryza sativa); test: Test B flooded paddy test; conditions: for Plant response rating, Flood, Rice: 250 g ai/ha, flooded paddy test, visual rating on 0 to 100 scale (0 no effect, 100 complete control) after 13 to 15 days; for Plant response rating, Rice: Flood (flooded paddy test), 13 to 15 days
Description: as §3, §4

[13] = Postemergence, 125 g ai/ha, visual injury, 0 to 100 scale (0 no effect, 100 complete control), approx. ten days
[14] = Postemergence, 500 g ai/ha, 0 to 100 scale, 0 = no effect, 100 = complete control, approx. ten days
[15] = Preemergence, 125 g ai/ha, 0 to 100 scale, 0 = no effect, 100 = complete control
[16] = Preemergence, 500 g ai/ha, visual injury, 0 to 100 scale (0 no effect, 100 complete control), approx. ten days
[17] = 62 g ai/ha, scale 0 to 100, 0 is no effect, 100 is complete control
[18] = 31 g ai/ha, scale of 0 to 100 where 0 is no effect and 100 is complete control
[19] = 125 g ai/ha, scale 0 to 100, 0 is no effect, 100 is complete control

## COc1ccccc1-n1c(-c2ccccc2)ncc(C(=O)C2=C(O)CCCC2=O)c1=O [Compound 15]
[1]; [13]
  Wheat plant response rating: 0
[1]; [14]
  Plant response rating, Wheat: 20
[1]; [15]
  Plant response rating, Wheat: 0
[1]; [16]
  Plant response rating, Wheat: 20
[2]; [13]
  Foxtail, Giant plant response rating: 10
[2]; [14]
  Plant response rating, Foxtail, Giant: 70
[2]; [15]
  Plant response rating, Foxtail, Giant: 40
[2]; [16]
  Plant response rating, Foxtail, Giant: 70
[3]; [13]
  Crabgrass, Large plant response rating: 20
[3]; [14]
  Plant response rating, Crabgrass, Large: 70
[3]; [15]
  Plant response rating, Crabgrass, Large: 40
[3]; [16]
  Plant response rating, Crabgrass, Large: 90
[4]; [13]
  Barnyardgrass plant response rating: 10
[4]; [14]
  Plant response rating, Barnyardgrass: 40
[4]; [15]
  Plant response rating, Barnyardgrass: 10
[4]; [16]
  Plant response rating, Barnyardgrass: 90
[5]; [13]
  Velvetleaf plant response rating: 100
[5]; [14]
  Plant response rating, Velvetleaf: 100
[5]; [15]
  Plant response rating, Velvetleaf: 40
[5]; [16]
  Plant response rating, Velvetleaf: 90
[6]; [13]
  Pigweed plant response rating: 60
[6]; [14]
  Plant response rating, Pigweed: 90
[6]; [15]
  Plant response rating, Pigweed: 30
[6]; [16]
  Plant response rating, Pigweed: 90
[7]; [13]
  Morningglory plant response rating: 10
[7]; [14]
  Plant response rating, Morningglory: 50
[7]; [15]
  Plant response rating, Morningglory: 0
[7]; [16]
  Plant response rating, Morningglory: 60
[8]; [13]
  Corn plant response rating: 0
[8]; [14]
  Plant response rating, Corn: 10
[8]; [15]
  Plant response rating, Corn: 0
[8]; [16]
  Plant response rating, Corn: 0
[9]
  Plant response rating, Flood, Barnyardgrass: 35
[9]; [17]
  Plant response rating, Barnyardgrass: 20
[10]
  Plant response rating, Flood, Ducksalad: 60
[10]; [17]
  Plant response rating, Ducksalad: 0
[11]
  Plant response rating, Flood, Sedge, Umbrella: 30
[11]; [17]
  Plant response rating, Sedge, Umbrella: 0
[12]
  Plant response rating, Flood, Rice: 0
[12]; [17]
  Plant response rating, Rice: 0

## Cc1cccc(-n2c(-c3ccccc3)ncc(C(=O)C3=C(O)CCCC3=O)c2=O)c1 [Compound 18]
[1]; [13]
  Wheat plant response rating: 0
[1]; [14]
  Plant response rating, Wheat: 50
[1]; [15]
  Plant response rating, Wheat: 0
[1]; [16]
  Plant response rating, Wheat: 40
[2]; [13]
  Foxtail, Giant plant response rating: 40
[2]; [14]
  Plant response rating, Foxtail, Giant: 90
[2]; [15]
  Plant response rating, Foxtail, Giant: 40
[2]; [16]
  Plant response rating, Foxtail, Giant: 90
[3]; [13]
  Crabgrass, Large plant response rating: 30
[3]; [14]
  Plant response rating, Crabgrass, Large: 80
[3]; [15]
  Plant response rating, Crabgrass, Large: 60
[3]; [16]
  Plant response rating, Crabgrass, Large: 100
[4]; [13]
  Barnyardgrass plant response rating: 20
[4]; [14]
  Plant response rating, Barnyardgrass: 90
[4]; [15]
  Plant response rating, Barnyardgrass: 10
[4]; [16]
  Plant response rating, Barnyardgrass: 100
[5]; [13]
  Velvetleaf plant response rating: 100
[5]; [14]
  Plant response rating, Velvetleaf: 100
[5]; [15]
  Plant response rating, Velvetleaf: 30
[5]; [16]
  Plant response rating, Velvetleaf: 100
[6]; [13]
  Pigweed plant response rating: 100
[6]; [14]
  Plant response rating, Pigweed: 100
[6]; [15]
  Plant response rating, Pigweed: 70
[6]; [16]
  Plant response rating, Pigweed: 100
[7]; [13]
  Morningglory plant response rating: 40
[7]; [14]
  Plant response rating, Morningglory: 100
[7]; [15]
  Plant response rating, Morningglory: 20
[7]; [16]
  Plant response rating, Morningglory: 70
[8]; [13]
  Corn plant response rating: 0
[8]; [14]
  Plant response rating, Corn: 20
[8]; [15]
  Plant response rating, Corn: 0
[8]; [16]
  Plant response rating, Corn: 20
[9]
  Plant response rating, Flood, Barnyardgrass: 50
[9]; [18]
  Plant response rating, Barnyardgrass: 10
[9]; [17]
  Plant response rating, Barnyardgrass: 20
[9]; [19]
  Plant response rating, Barnyardgrass: 20
[10]
  Plant response rating, Flood, Ducksalad: 90
[10]; [18]
  Plant response rating, Ducksalad: 20
[10]; [17]
  Plant response rating, Ducksalad: 50
[10]; [19]
  Plant response rating, Ducksalad: 65
[11]
  Plant response rating, Flood, Sedge, Umbrella: 85
[11]; [18]
  Plant response rating, Sedge, Umbrella: 0
[11]; [17]
  Plant response rating, Sedge, Umbrella: 30
[11]; [19]
  Plant response rating, Sedge, Umbrella: 50
[12]
  Plant response rating, Flood, Rice: 25
[12]; [18]
  Plant response rating, Rice: 10
[12]; [17]
  Plant response rating, Rice: 15
[12]; [19]
  Plant response rating, Rice: 25

Source: US8952024B2, “Herbicidal pyrimidone derivatives” (E I du Pont de Nemours and Company, priority 2009, dated 2015)
